Reference: patent publication US12539292B2, “BRM targeting compounds and associated methods of use” (Arvinas Operations, Inc., priority 2018, dated 2026)
Where two headings read alike, the source gives them in different places.

Target: T1, BRM (Homo sapiens, UniProt P51531)
T1 construct: In-Cell Western Screen of BRM Degradation in SW1573 Cells; endogenous in cells; host or cells: SW1573
Assay: In-cell Western screen of BRM degradation in SW1573 cells (Dmax and DC50)
Assay type: cell-based
Protocol: In-Cell Western Screen of BRM Degradation in SW1573 Cells
To assess BRM degradation (Dmax and DC50), cells were seeded at 8000/well in 96-well black/clear-bottom plates in 180 μL DMEM growth media (containing 1% pen-strep, 1% HEPES and 10% FBS) per well. Plates were incubated overnight to allow adhesion. The next morning cells were treated by adding 20 μL of 10× compound (1% DMSO) to appropriate wells and returned to incubator for overnight (18-20 hours). The final DMSO concentration was 0.1%.
For processing, the plates were removed from incubator, the media was removed, and immediately 200 μL of cold (4° C.) DPBS was added to all wells. DPBS was then removed, and 50 μL of 4% paraformaldehyde (PFA) in DPBS (4° C.) was added to all wells, and the plates were incubated at room temperature for 20 minutes. PFA was then removed, and 200 μL of TBS-T containing 0.5% Triton X-100 was added to all wells, and the plates were incubated at room temperature for 30 minutes. TBS-T containing 0.5% Triton X-100 was then removed, and 50 μL of Li-Cor blocking solution was added, and the plates were incubated at room temperature for a minimum of one hour.
The next day plates were washed three times with TBS-T, 200 μL per well. Fifty (50) μL of secondary antibody cocktail in LI-COR blocking solution (anti-rabbit_800 nm and anti-mouse_680 nm) was added to all wells (diluted 1:5000). The plates were incubated at room temperature for at least one hour while protected from light. The plates were washed twice with TBS-T, 200 μL per well.
To read each plate TBS-T was removed, and each plate was inverted tapped on a paper towel. The plates were read on the LI-COR Odyssey with default intensity settings of 5.0 for both channels. LI-COR images were analyzed with the in-cell Western feature of Image Studio Lite.

[1] = BRM degradation, SW1573 cells, read-out: DC50
[2] = BRM degradation, SW1573 cells, Table 2D, read-out: *DC50
[3] = BRM degradation, SW1573 cells, when tested at the top concentration of between 0.3 and 10 μM, read-out: Dmax (%) (% degraded)
[4] = BRM degradation, SW1573 cells, tested at the top concentration of between 0.3 and 10 μM, read-out: Dmax (%) (% degraded)

T1 sequence (P51531 whole entry): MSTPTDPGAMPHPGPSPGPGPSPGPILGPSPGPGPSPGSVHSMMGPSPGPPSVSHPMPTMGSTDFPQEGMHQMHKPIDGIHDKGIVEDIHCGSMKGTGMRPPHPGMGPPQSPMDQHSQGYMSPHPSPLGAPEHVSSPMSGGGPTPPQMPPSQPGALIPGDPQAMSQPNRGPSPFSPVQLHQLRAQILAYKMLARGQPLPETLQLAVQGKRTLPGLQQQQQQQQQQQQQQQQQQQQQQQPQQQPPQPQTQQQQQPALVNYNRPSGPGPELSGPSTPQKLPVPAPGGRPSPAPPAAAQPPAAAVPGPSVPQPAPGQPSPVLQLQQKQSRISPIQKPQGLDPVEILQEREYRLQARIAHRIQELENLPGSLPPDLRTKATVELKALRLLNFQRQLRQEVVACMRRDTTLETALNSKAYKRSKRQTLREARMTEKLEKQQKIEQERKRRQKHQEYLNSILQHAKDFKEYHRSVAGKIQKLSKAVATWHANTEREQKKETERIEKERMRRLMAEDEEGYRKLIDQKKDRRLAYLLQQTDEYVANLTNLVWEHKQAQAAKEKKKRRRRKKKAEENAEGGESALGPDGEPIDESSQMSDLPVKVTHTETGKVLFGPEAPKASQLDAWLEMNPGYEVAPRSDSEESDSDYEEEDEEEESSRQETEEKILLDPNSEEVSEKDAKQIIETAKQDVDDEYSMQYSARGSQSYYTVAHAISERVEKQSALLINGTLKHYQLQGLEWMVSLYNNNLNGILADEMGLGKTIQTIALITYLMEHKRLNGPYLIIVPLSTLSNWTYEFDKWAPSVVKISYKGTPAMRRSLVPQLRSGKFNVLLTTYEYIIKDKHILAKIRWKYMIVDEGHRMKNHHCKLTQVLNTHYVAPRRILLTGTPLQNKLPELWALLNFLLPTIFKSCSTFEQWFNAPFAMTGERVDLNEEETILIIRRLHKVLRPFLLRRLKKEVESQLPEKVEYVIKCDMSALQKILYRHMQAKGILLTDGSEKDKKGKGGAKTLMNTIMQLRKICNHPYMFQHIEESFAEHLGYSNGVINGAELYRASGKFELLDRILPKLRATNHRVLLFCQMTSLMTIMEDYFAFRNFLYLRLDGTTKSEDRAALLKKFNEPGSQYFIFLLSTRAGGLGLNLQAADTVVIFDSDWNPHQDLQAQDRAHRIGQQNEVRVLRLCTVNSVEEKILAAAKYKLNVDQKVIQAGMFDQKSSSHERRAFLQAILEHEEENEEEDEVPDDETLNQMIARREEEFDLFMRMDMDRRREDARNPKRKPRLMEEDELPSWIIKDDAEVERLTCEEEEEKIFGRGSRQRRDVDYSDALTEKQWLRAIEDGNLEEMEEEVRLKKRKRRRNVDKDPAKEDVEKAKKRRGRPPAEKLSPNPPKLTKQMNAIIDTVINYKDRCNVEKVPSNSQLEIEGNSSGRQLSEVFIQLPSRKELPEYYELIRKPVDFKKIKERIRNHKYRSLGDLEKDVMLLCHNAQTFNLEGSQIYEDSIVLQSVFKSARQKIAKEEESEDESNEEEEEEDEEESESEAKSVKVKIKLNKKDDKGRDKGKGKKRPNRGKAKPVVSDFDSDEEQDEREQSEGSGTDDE

With CC(C)[C@@H](C(=O)N1C[C@H](O)C[C@H]1C(=O)N[C@@H](C)c1ccc(-c2scnc2N)cc1)c1cc(N2CCC(CN3CCC(O[C@H]4C[C@H](Oc5cc(N6C7CCC6CN(c6cc(-c8ccccc8O)nnc6N)C7)ccn5)C4)CC3)CC2)no1 [compound 630, (2S,4R)-1-((2R)-2-(3-(4-((4-((1r,3r)-3-((4-(3-(3-amino-6-(2-hydroxyphenyl)pyridazin-4-yl)-3,8-diazabicyclo[3.2.1]octan-8-yl)pyridin-2-yl)oxy)cyclobutoxy)piperidin-1-yl)methyl)piperidin-1-yl)isoxazol-5-yl)-3-methylbutanoyl)-N-((S)-1-(4-(4-aminothiazol-5-yl)phenyl)ethyl)-4-hydroxypyrrolidine-2-carboxamide] the DC50 [1] was less than 2.5 nM and the Dmax (BRM degradation, SW1573 cells, read-out: Dmax (% degraded)) was greater than 75%.
Compound Cc1ncsc1-c1ccc([C@H](C)NC(=O)[C@@H]2C[C@@H](O)CN2C(=O)[C@H](c2cc(OCC[C@H]3CCN(C[C@H]4C[C@H](Oc5cc(N6C7CCC6CN(c6cc(-c8ccccc8O)nnc6N)C7)ccn5)C4)[C@@H](C)C3)no2)C(C)C)cc1 (racemic) [compound 547, (2S,4R)-1-((2S)-2-(3-(2-((2S,4S)-1-(((1r,3S)-3-((4-(3-(3-amino-6-(2-hydroxyphenyl)pyridazin-4-yl)-3,8-diazabicyclo[3.2.1]octan-8-yl)pyridin-2-yl)oxy)cyclobutyl)methyl)-2-methylpiperidin-4-yl)ethoxy)isoxazol-5-yl)-3-methylbutanoyl)-4-hydroxy-N-((S)-1-(4-(4-methylthiazol-5-yl)phenyl)ethyl)pyrrolidine-2-carboxamide] has a DC50 [2] greater than 30 nM.
COc1nc(-c2scnc2C)c(F)cc1[C@H](C)NC(=O)[C@@H]1C[C@@H](O)CN1C(=O)[C@@H](c1cc(OCCN2CCC(O[C@H]3C[C@H](Oc4cc(N5C6CCC5CN(c5cc(-c7ccccc7O)nnc5N)C6)ccn4)C3)CC2)no1)C(C)C [compound 562, (2S,4R)-1-((2R)-2-(3-(2-(4-((1r,3R)-3-((4-(3-(3-amino-6-(2-hydroxyphenyl)pyridazin-4-yl)-3,8-diazabicyclo[3.2.1]octan-8-yl)pyridin-2-yl)oxy)cyclobutoxy)piperidin-1-yl)ethoxy)isoxazol-5-yl)-3-methylbutanoyl)-N-((S)-1-(5-fluoro-2-methoxy-6-(4-methylthiazol-5-yl)pyridin-3-yl)ethyl)-4-hydroxypyrrolidine-2-carboxamide] gave a Dmax (BRM degradation, SW1573 cells, Table 2D, read-out: **Dmax (%) (% degraded)) greater than 75% and a DC50 [2] of less than 2.5 nM.
Cc1ncsc1-c1ccc([C@@H](NC(=O)[C@@H]2C[C@@H](O)CN2C(=O)[C@H](c2cc(N3CCC(CN4CCC(O[C@H]5C[C@H](Oc6cc(N7C8CCC7CN(c7cc(-c9ccccc9O)nnc7N)C8)ccn6)C5)CC4)CC3)no2)C(C)C)C(F)F)cc1 [compound 571, (2S,4R)-1-((2S)-2-(3-(4-((4-((1r,3r)-3-((4-(3-(3-amino-6-(2-hydroxyphenyl)pyridazin-4-yl)-3,8-diazabicyclo[3.2.1]octan-8-yl)pyridin-2-yl)oxy)cyclobutoxy)piperidin-1-yl)methyl)piperidin-1-yl)isoxazol-5-yl)-3-methylbutanoyl)-N-((R)-2,2-difluoro-1-(4-(4-methylthiazol-5-yl)phenyl)ethyl)-4-hydroxypyrrolidine-2-carboxamide] showed a DC50 [2] greater than 30 nM.
With Cc1ncsc1-c1ccc(CNC(=O)[C@@H]2C[C@@H](O)CN2C(=O)[C@@H](NC(=O)COCCOCCOCCOCCOCCOCCOCCOc2cc(N3C4CCC3CN(c3cc(-c5ccccc5O)nnc3N)C4)ccn2)C(C)(C)C)cc1 [compound 10, (2S,4R)-1-((2S)-26-((4-(3-(3-amino-6-(2-hydroxyphenyl)pyridazin-4-yl)-3,8-diazabicyclo[3.2.1]octan-8-yl)pyridin-2-yl)oxy)-2-(tert-butyl)-4-oxo-6,9,12,15,18,21,24-heptaoxa-3-azahexacosanoyl)-4-hydroxy-N-(4-(4-methylthiazol-5-yl)benzyl)pyrrolidine-2-carboxamide] the DC50 [1] was 2.5 to 10 nM and the Dmax [3] was greater than 75%.
CC(C)[C@@H](C(=O)N1C[C@H](O)C[C@H]1C(=O)N[C@@H](C)c1ccc(C2CC2(F)F)cc1)c1cc(OCCN2CCC(O[C@H]3C[C@H](Oc4cc(N5C6CCC5CN(c5cc(-c7ccccc7O)nnc5N)C6)ccn4)C3)CC2)no1 (stereo partly drawn) [compound 439, (2S,4R)-1-((2R)-2-(3-(2-(4-((1r,3R)-3-((4-(3-(3-amino-6-(2-hydroxyphenyl)pyridazin-4-yl)-3,8-diazabicyclo[3.2.1]octan-8-yl)pyridin-2-yl)oxy)cyclobutoxy)piperidin-1-yl)ethoxy)isoxazol-5-yl)-3-methylbutanoyl)-N-((1S)-1-(4-(2,2-difluorocyclopropyl)phenyl)ethyl)-4-hydroxypyrrolidine-2-carboxamide] gave a DC50 (degradation of BRM, read-out: BRM DC50) greater than 30 nM.
For Cc1ncsc1-c1ccc([C@H](C)NC(=O)[C@@H]2C[C@@H](O)CN2C(=O)C(c2cc(OCCN3CCN(CCO[C@H]4C[C@H](OCCN5CCOC6(CCN(c7cc(-c8ccccc8O)nnc7N)CC6)C5)C4)CC3)no2)C(C)C)cc1 (stereo partly drawn) [compound 192, (2S,4R)-1-(2-(3-(2-(4-(2-((1r,3r)-3-(2-(9-(3-amino-6-(2-hydroxyphenyl)pyridazin-4-yl)-1-oxa-4,9-diazaspiro[5.5]undecan-4-yl)ethoxy)cyclobutoxy)ethyl)piperazin-1-yl)ethoxy)isoxazol-5-yl)-3-methylbutanoyl)-4-hydroxy-N-((S)-1-(4-(4-methylthiazol-5-yl)phenyl)ethyl)pyrrolidine-2-carboxamide], the DC50 [1] was less than 2.5 nM and the Dmax [4] was greater than 75%.
With CC(C)C(C(=O)N1C[C@H](O)C[C@H]1C(=O)N[C@@H](C)c1ccc(-c2scnc2C#CCN(C)C)cc1)c1cc(OCCN2CCN(CCOc3cc(N4C5CCC4CN(c4cc(-c6ccccc6O)nnc4N)C5)ccn3)CC2)no1 (stereo partly drawn) [compound 172, (2S,4R)-1-(2-(3-(2-(4-(2-((4-(3-(3-amino-6-(2-hydroxyphenyl)pyridazin-4-yl)-3,8-diazabicyclo[3.2.1]octan-8-yl)pyridin-2-yl)oxy)ethyl)piperazin-1-yl)ethoxy)isoxazol-5-yl)-3-methylbutanoyl)-N-((S)-1-(4-(4-(3-(dimethylamino)prop-1-yn-1-yl)thiazol-5-yl)phenyl)ethyl)-4-hydroxypyrrolidine-2-carboxamide] the DC50 [1] was less than 2.5 nM and the Dmax [4] was greater than 75%.
In the case of Cc1cc([C@H](C(=O)N2C[C@H](O)C[C@H]2C(=O)N[C@@H](C)c2ccc(-c3scnc3C)cc2)[C@@H](C)COCCCOc2cc(N3C4CCC3CN(c3cc(-c5ccccc5O)nnc3N)C4)ccn2)on1 [compound 495, (2S,4R)-1-((2R,3R)-4-(3-((4-(3-(3-amino-6-(2-hydroxyphenyl)pyridazin-4-yl)-3,8-diazabicyclo[3.2.1]octan-8-yl)pyridin-2-yl)oxy)propoxy)-3-methyl-2-(3-methylisoxazol-5-yl)butanoyl)-4-hydroxy-N-((S)-1-(4-(4-methylthiazol-5-yl)phenyl)ethyl)pyrrolidine-2-carboxamide], the DC50 (BRM degradation, read-out: BRM DC50) is reported as greater than 30 nM.
For Cc1ncsc1-c1ccc(CNC(=O)[C@@H]2C[C@@H](O)CN2C(=O)[C@@H](c2cc(OCC#Cc3ccc(O[C@H]4C[C@H](Oc5cc(N6C7CCC6CN(c6cc(-c8ccccc8O)nnc6N)C7)ccn5)C4)cn3)no2)C(C)C)cc1 [compound 221, (2S,4R)-1-((2R)-2-(3-((3-(5-((1r,3R)-3-((4-(3-(3-amino-6-(2-hydroxyphenyl)pyridazin-4-yl)-3,8-diazabicyclo[3.2.1]octan-8-yl)pyridin-2-yl)oxy)cyclobutoxy)pyridin-2-yl)prop-2-yn-1-yl)oxy)isoxazol-5-yl)-3-methylbutanoyl)-4-hydroxy-N-(4-(4-methylthiazol-5-yl)benzyl)pyrrolidine-2-carboxamide], the DC50 [1] was less than 2.5 nM and the Dmax [4] was greater than 75%.
Work on Cc1ncsc1-c1ccc(CNC(=O)[C@@H]2C[C@@H](O)CN2C(=O)[C@@H](c2cc(CCCOCCOCCOCCn3cc(-c4cc(-c5ccccc5O)nnc4N)cn3)no2)C(C)C)cc1 [compound 24, (2S,4R)-1-[(2R)-2-[3-(3-[2-[2-(2-[4-[3-amino-6-(2-hydroxyphenyl)pyridazin-4-yl]-1H-pyrazol-1-yl]ethoxy)ethoxy]ethoxy]propyl)-1,2-oxazol-5-yl]-3-methylbutanoyl]-4-hydroxy-N-[[4-(4-methyl-1,3-thiazol-5-yl)phenyl]methyl]pyrrolidine-2-carboxamide] yielded a DC50 [1] of 2.5 to 10 nM and a Dmax [3] greater than 75%.
